{"source": "patent US8835428B2", "about": "“Diacylglycerol acyltransferase inhibitors” (Piramal Enterprises Limited, priority 2008, dated 2014)", "target": "T1, hDGAT1 (Homo sapiens, UniProt O75907)", "T1 construct": "host or cells: Sf9 insect cells (baculovirus); microsomal preparation", "T1 sequence (O75907 1-488)": "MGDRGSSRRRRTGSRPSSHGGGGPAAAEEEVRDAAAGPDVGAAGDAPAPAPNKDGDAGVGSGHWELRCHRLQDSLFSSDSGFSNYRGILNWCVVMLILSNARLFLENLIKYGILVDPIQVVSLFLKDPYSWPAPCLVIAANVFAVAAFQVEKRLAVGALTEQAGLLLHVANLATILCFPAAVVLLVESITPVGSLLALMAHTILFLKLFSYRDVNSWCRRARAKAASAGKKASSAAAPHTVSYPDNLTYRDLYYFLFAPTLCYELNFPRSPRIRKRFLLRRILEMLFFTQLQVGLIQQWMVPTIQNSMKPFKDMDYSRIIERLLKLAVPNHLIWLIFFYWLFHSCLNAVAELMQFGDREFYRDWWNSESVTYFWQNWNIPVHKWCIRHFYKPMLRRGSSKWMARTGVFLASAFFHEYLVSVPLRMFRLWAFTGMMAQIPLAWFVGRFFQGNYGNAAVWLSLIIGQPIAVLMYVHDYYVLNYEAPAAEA", "assay": "In-vitro DGAT1 assay (hDGAT1 microsomes from Sf9 cells, 14C oleoyl CoA, triglyceride formation)", "type": "biochemical", "in_short": "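Compounds tested in duplicate at 10, 5 and 1 μM for 10 min at 37 °C. Reaction: Sf9-expressed hDGAT1 microsomes (2.5–10 μg), [14C]oleoyl-CoA plus 409.5–1638 μM dioleoylglycerol, pH 7.4 Tris-HCl with fatty-acid-free BSA. Radiolabelled triglyceride extracted into heptane and scintillation-counted.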", "data": [{"smiles": "CCCCc1ccc(NC(=O)Nc2ccc(-c3cc(C(=O)NC(C(=O)O)C(C)C)on3)cc2)cc1", "note": "(stereo not drawn) [Example 158, 2-(3-(4-(3-(4-butylphenyl)ureido)phenyl)isoxazole-5-carboxamido)-3-methylbutanoic acid]", "values": [{"measurement": "inhibition at 1 µM", "value": "75 to 100", "unit": "%"}]}, {"smiles": "Cc1cc(OC(F)(F)F)ccc1NC(=O)Nc1ccc(-c2cc(C(=O)NC(C(=O)O)C(C)C)on2)cc1", "note": "(stereo not drawn) [Example 295, 3-methyl-2-(3-(4-(3-(2-methyl-4-(trifluoromethoxy)phenyl)ureido)phenyl)isoxazole-5-carboxamido)butanoic acid]", "values": [{"measurement": "inhibition at 1 µM", "value": "75 to 100", "unit": "%"}]}, {"smiles": "COC[C@H](NC(=S)c1cc(-c2cccc(Nc3nc4ccc(F)cc4s3)c2)no1)C(=O)OC", "note": "[Example 30, (S)-2-({3-[3-(6-Fluoro-benzothiazol-2-ylamino)-phenyl]-isoxazole-5-carbothioyl}-amino)-3-methoxy-propionic acid methyl ester]", "values": [{"measurement": "inhibition at 10 µM", "value": "0 to 50", "unit": "%"}]}, {"smiles": "O=C(Nc1ccc(F)cc1)Nc1ccc(-c2cc(C(=O)NC3(C(=O)O)CCCC3)on2)cc1", "note": "[Example 120, 1-(3-(4-(3-(4-fluorophenyl)ureido)phenyl)isoxazole-5-carboxamido) cyclopentanecarboxylic acid]", "values": [{"measurement": "inhibition at 10 µM", "value": "50 to 75", "unit": "%"}]}, {"smiles": "COC(=O)[C@@H]1CCCN1C(=O)c1cc(-c2ccc(NC(=O)Nc3ccccc3F)cc2)no1", "note": "[Example 261, (S)-Methyl 1-(3-(4-(3-(2-fluorophenyl)ureido)phenyl)isoxazole-5-carbonyl)pyrrolidine-2-carboxylate]", "values": [{"measurement": "inhibition at 1 µM", "value": "50 to 75", "unit": "%"}]}, {"smiles": "Cc1cc(-c2cc(C(=O)NC(CC(C)C)C(=O)O)on2)ccc1NC(=O)Nc1c(F)cccc1F", "note": "(stereo not drawn) [Example 100, 2-(3-(4-(3-(2,6-Difluorophenyl)ureido)-3-methylphenyl)isoxazole-5-carboxamido)-4-methylpentanoic acid]", "values": [{"measurement": "inhibition at 10 µM", "value": "0 to 50", "unit": "%"}]}, {"smiles": "COC(=O)[C@H](CO)NC(=O)c1cc(-c2ccc(NC(=O)Nc3ccccc3F)cc2)no1", "note": "[Example 298, (S)-Methyl 2-(3-(4-(3-(2-fluorophenyl)ureido)phenyl)isoxazole-5-carboxamido)-3-hydroxypropanoate]", "values": [{"measurement": "inhibition at 5 µM", "value": "50 to 75", "unit": "%"}]}, {"smiles": "CC(C)[C@@H](NC(=O)c1cc(-c2ccc(NS(=O)(=O)c3c(F)cccc3F)cc2)no1)C(=O)O", "note": "[Example 317, (R)-2-(3-(4-(2,6-Difluorophenylsulfonamido)phenyl)isoxazole-5-carboxamido)-3-methylbutanoic acid]", "values": [{"measurement": "inhibition at 1 µM", "value": "0 to 50", "unit": "%"}]}, {"smiles": "CC(C)C(NC(=O)c1cc(-c2ccc(NC(=O)Nc3ccccn3)cc2)no1)C(=O)O", "note": "(stereo not drawn) [Example 280, 3-methyl-2-(3-(4-(3-pyridin-2-ylureido)phenyl)isoxazole-5-carboxamido)butanoic acid]", "values": [{"measurement": "inhibition at 5 µM", "value": "50 to 75", "unit": "%"}]}, {"smiles": "CC(C)[C@H](NC(=O)c1onc(-c2ccc(NC(=O)Nc3ccccc3)cc2)c1-c1ccccc1)C(=O)O", "note": "[Example 89, (S)-3-Methyl-2-({4-phenyl-3-[4-(3-phenyl-ureido)-phenyl]-isoxazole-5-carbonyl}-amino)-butyric acid]", "values": [{"measurement": "inhibition at 10 µM", "value": "0 to 50", "unit": "%"}]}, {"smiles": "COc1ccc(NC(=O)Nc2ccc(-c3cc(C(=O)N[C@H](C(=O)O)C(C)C)on3)cc2)c(OC)c1", "note": "[Example 169, (S)-2-(3-(4-(3-(2,4-dimethoxyphenyl)ureido)phenyl)isoxazole-5-carboxamido)-3-methylbutanoic acid]", "values": [{"measurement": "inhibition at 1 µM", "value": "50 to 75", "unit": "%"}]}, {"smiles": "Cc1cc(NC(=O)Nc2ccccc2F)ccc1-c1cc(C(=O)NC(C(=O)O)C(C)C)on1", "note": "(stereo not drawn) [Example 136, 2-(3-(4-(3-(2-Fluorophenyl)ureido)-2-methylphenyl)isoxazole-5-carboxamido)-3-methylbutanoic acid]", "values": [{"measurement": "inhibition at 5 µM", "value": "75 to 100", "unit": "%"}]}, {"smiles": "COC(=O)C(NC(=O)c1cc(-c2ccc(NC(=O)Nc3ccc(-c4cc(C(=O)NC(C(=O)OC)C(C)C)on4)cc3)cc2)no1)C(C)C", "note": "(stereo not drawn) [Example 281, 2-({3-[4-(3-{4-[5-(1-Methoxycarbonyl-2-methyl-propylcarbamoyl)-isoxazol-3-yl]-phenyl}-ureido)-phenyl]-isoxazol-5-carbonyl}-amino)-3-methyl-butyric acid methyl ester]", "values": [{"measurement": "inhibition at 5 µM", "value": "0 to 50", "unit": "%"}]}, {"smiles": "CC(C)[C@H](NC(=O)c1cc(-c2ccc(NC(=O)Nc3cccc(Cl)c3F)cc2)no1)C(=O)O", "note": "[Example 183, (S)-2-(3-(4-(3-(3-chloro-2-fluorophenyl)ureido)phenyl)isoxazole-5-carboxamido)-3-methylbutanoic acid]", "values": [{"measurement": "inhibition at 1 µM", "value": "75 to 100", "unit": "%"}]}, {"smiles": "Cc1ccc(NC(=O)Nc2ccc(-c3cc(C(=O)N[C@H](C(=O)O)C(C)C)on3)cc2)cc1C", "note": "[Example 173, (S)-2-(3-(4-(3-(3,4-dimethylphenyl)ureido)phenyl)isoxazole-5-carboxamido)-3-methylbutanoic acid]", "values": [{"measurement": "inhibition at 1 µM", "value": "75 to 100", "unit": "%"}]}, {"smiles": "COC(=O)C(NC(=O)c1cc(-c2ccc(NC(=O)Nc3ccc(C(F)(F)F)cc3)cc2)no1)C(C)C", "note": "(stereo not drawn) [Example 275, Methyl 3-methyl-2-(3-(4-(3-(4-(trifluoromethyl)phenyl)ureido)phenyl)isoxazole-5-carboxamido)butanoate]", "values": [{"measurement": "inhibition at 5 µM", "value": "0 to 50", "unit": "%"}]}, {"smiles": "COC(=O)[C@H](Cc1ccc(O)cc1)NC(=O)c1cc(-c2ccc(NC(=O)Nc3ccccc3F)cc2)no1", "note": "[Example 274, (S)-Methyl 2-(3-(4-(3-(2-fluorophenyl)ureido)phenyl)isoxazole-5-carboxamido)-3-(4-hydroxyphenyl)propanoate]", "values": [{"measurement": "inhibition at 5 µM", "value": "0 to 50", "unit": "%"}]}, {"smiles": "COC(=O)[C@@H](NC(=S)c1cc(-c2cccc(Nc3nc4ccc(F)cc4s3)c2)no1)C(C)C", "note": "[Example 24, (S)-2-({3-[3-(6-Fluoro-benzothiazol-2-ylamino)-phenyl]-isoxazole-5-carbothioyl}-amino)-3-methyl-butyric acid methyl ester]", "values": [{"measurement": "inhibition at 10 µM", "value": "0 to 50", "unit": "%"}]}, {"smiles": "CC(C)[C@H](NC(=O)c1cc(-c2ccc(NC(=S)Nc3ccccc3F)cc2)no1)C(=O)O", "note": "[Example 270, (S)-2-(3-(4-(3-(2-fluorophenyl)thioureido)phenyl)isoxazole-5-carboxamido)-3-methylbutanoic acid]", "values": [{"measurement": "inhibition at 5 µM", "value": "50 to 75", "unit": "%"}]}, {"smiles": "COC(=O)[C@H](NC(=NO)c1cc(-c2ccc(Nc3nc4ccc(F)cc4s3)cc2)no1)C(C)C", "note": "[Example 40, (R)-2-({3-[4-(6-Fluoro-benzothiazol-2-ylamino)-phenyl]-N-hydroxy-isoxazole-5-carboximidoyl}-amino)-3-methyl-butyric acid methyl ester]", "values": [{"measurement": "inhibition at 10 µM", "value": "0 to 50", "unit": "%"}]}, {"smiles": "CC(C)[C@H](NC(=O)c1csc(-c2ccc(NC(=O)Nc3ccc(F)cc3F)cc2)n1)C(=O)O", "note": "[Example 359, (S)-2-(2-(4-(3-(2,4-difluorophenyl)ureido)phenyl)thiazole-4-carboxamido)-3-methylbutanoic acid]", "values": [{"measurement": "inhibition at 1 µM", "value": "0 to 50", "unit": "%"}]}, {"smiles": "Cc1ccc(F)cc1NC(=O)Nc1ccc(-c2cc(C(=O)NC(C(=O)O)C(C)C)on2)cc1", "note": "(stereo not drawn) [Example 252, 2-(3-(4-(3-(5-Fluoro-2-methylphenyl)ureido)phenyl)isoxazole-5-carboxamido)-3-methylbutanoic acid]", "values": [{"measurement": "inhibition at 1 µM", "value": "75 to 100", "unit": "%"}]}, {"smiles": "Cc1ccc(NC(=O)Nc2ccc(-c3cc(C(=O)NCCCC(=O)O)on3)cc2)cc1", "note": "[Example 256, 4-(3-(4-(3-p-Tolylureido)phenyl)isoxazole-5-carboxamido)butanoic acid]", "values": [{"measurement": "inhibition at 5 µM", "value": "50 to 75", "unit": "%"}]}, {"smiles": "COC(=O)[C@H](NC(=O)c1cc(-c2ccc(NC(=O)Nc3ccccc3C#N)cc2)no1)C(C)C", "note": "[Example 216, (R)-methyl 2-(3-(4-(3-(2-cyanophenyl)ureido)phenyl)isoxazole-5-carboxamido)-3-methylbutanoate]", "values": [{"measurement": "inhibition at 1 µM", "value": "0 to 50", "unit": "%"}]}, {"smiles": "CC(C)[C@H](NC(=O)c1cc(-c2ccc(NC(=O)Nc3ccc(Cl)nc3)cc2)no1)C(=O)O", "note": "[Example 207, (S)-2-(3-(4-(3-(6-chloropyridin-3-yl)ureido)phenyl)isoxazole-5-carboxamido)-3-methylbutanoic acid]", "values": [{"measurement": "inhibition at 1 µM", "value": "0 to 50", "unit": "%"}]}, {"smiles": "COc1ccc(NC(=O)Nc2ccc(-c3cc(C(=O)NC(C(=O)O)C(C)C)on3)cc2)cc1", "note": "(stereo not drawn) [Example 128, 2-(3-(4-(3-(4-Methoxyphenyl)ureido)phenyl)isoxazole-5-carboxamido)-3-methylbutanoic acid]", "values": [{"measurement": "inhibition at 10 µM", "value": "75 to 100", "unit": "%"}]}, {"smiles": "CC(C)[C@H](NC(=O)c1c(-c2ccc(Nc3nc4ccc(F)cc4s3)cc2)noc1-c1ccccc1)C(=O)O", "note": "[Example 69, (S)-2-({3-[4-(6-Fluoro-benzothiazol-2-ylamino)-phenyl]-5-phenyl-isoxazole-4-carbonyl}-amino)-3-methyl-butyric acid]", "values": [{"measurement": "inhibition at 10 µM", "value": "0 to 50", "unit": "%"}]}, {"smiles": "COC(=O)[C@@H](NC(=O)c1cc(-c2ccc(NC(=O)Nc3ccccc3F)cc2F)no1)C(C)C", "note": "[Example 143, (S)-methyl 2-(3-(2-fluoro-4-(3-(2-fluorophenyl)ureido)phenyl)isoxazole-5-carboxamido)-3-methylbutanoate]", "values": [{"measurement": "inhibition at 5 µM", "value": "50 to 75", "unit": "%"}]}, {"smiles": "COC(=O)[C@@H](NC(=O)c1nc(-c2ccc(NC(=O)Nc3ccccc3F)cc2)no1)C(C)C", "note": "[Example 348, (S)-methyl 2-(3-(4-(3-(2-fluorophenyl)ureido)phenyl)-1,2,4-oxadiazole-5-carboxamido)-3-methylbutanoate]", "values": [{"measurement": "inhibition at 5 µM", "value": "0 to 50", "unit": "%"}]}, {"smiles": "CC(C)[C@@H](C(=O)O)N(C)C(=O)c1cc(-c2ccc(NC(=O)NC3CCCCC3)cc2)no1", "note": "[Example 312, (S)-2-(3-(4-(3-cyclohexylureido)phenyl)-N-methylisoxazole-5-carboxamido)-3-methylbutanoic acid]", "values": [{"measurement": "inhibition at 1 µM", "value": "0 to 50", "unit": "%"}]}]}
